Entries after “also recorded” stand apart in the source; their conditions may differ.
Tests used:
[1] = test system: DIO mice; test: Chronic treatment of DIO mice (body weight, food intake, leptin, DEXA); format: in vivo; settings: for body weight after treatment / decrease in body weight: 3 weeks; for body weight after treatment / decrease in body weight / body weight before treatment / daily food intake under treatment: ACY775 10, ACY738 50 mg/kg/day i.p.; for fat mass (DEXA) / fat percentage (DEXA) / lean mass (DEXA) / circulating/serum leptin levels: after 3 weeks; for circulating/serum leptin levels: ACY775 10, ACY738 50, ricolinostat 50 mg/kg i.p.; for food intake and total body fat mass: high fat diet induced mice, summary
Protocol: DIO mice were treated with ACY775 (10 mg/kg/day, i.p.) for 3 weeks. Daily body weight (g) of DIO mice treated with vehicle (n=17) or ACY775 (n=17) during 3 weeks of treatment was determined. Daily food intake (g) during 3 weeks of vehicle or ACY775 treatment was assessed. 24 hours' food intake per mouse during the first week of vehicle or ACY775 treatment was determined. Serum leptin (ng/ml) levels after 3 weeks of vehicle (n=24) or ACY775 (n=24) treatment was assessed. Lean mass (g), fat mass (g) and fat percentage (%) after 3 weeks of vehicle (n=17) or ACY775 (n=17) treatment measured by Dual-energy X-ray absorptiometry (DEXA) scan. DEXA scans were performed in two different cohorts. Glucose tolerance test (GTT) after 1 week of vehicle (n=33) or ACY775 (n=26) treated DIO mice was assessed. Area of curve (AOC) analysis for GTT was performed. Blood glucose (mg/dl) levels after 1 week of vehicle (n=17) or ACY775 (n=16) were assessed in treated DIO mice. Insulin tolerance test (ITT) was performed after 2 weeks of vehicle (n=31) or ACY775 (n=21) treatment of DIO mice. Serum insulin (ng/ml) levels were measured after 3 weeks of vehicle (n=22) or ACY775 (n=21) in treated DIO mice. A homeostatic model assessment of insulin resistance (HOMA-IR) was analyzed after 3 weeks of vehicle (n=14) or ACY775 (n=13) treated DIO mice.
Food intake was analyzed hourly until 3:00 am. […] DEXA scans were performed in two different cohorts.
DIO mice then were treated with ricolinostat (50 mg/kg, i.p.) for 3 weeks. Daily body weight (g), daily food intake (g), serum leptin (ng/ml) levels after 3 weeks of vehicle (n=8) or ricolinostat (n=8) treatment, lean mass (g); fat mass and fat percentage (%) after 3 weeks of vehicle (n=16) or ricolinostat (n=17) treatment measured by DEXA scan were determined.
Studies were conducted as described above with reference to ACY775.
DIO mice then were treated with bavarostat (10 mg/kg, i.p.) for 3 weeks and daily body weight (g) of DIO mice treated with Veh (n=9) or bavarostat (n=9) measured during the three weeks of treatment period. Daily food intake (g) during 3 weeks of Veh or bavarostat treatment was also measured.
ACY1083 was administered to DIO mice as described in Example 3.

[2] = test system: STAT3^Tyr705 phosphorylation; test: Leptin-stimulated hypothalamic STAT3 phosphorylation in DIO mice; format: in vivo; settings: 45 min after leptin 1 mg/kg i.p., ACY775 10, ACY738 50, ricolinostat 50 mg/kg/day i.p.
Protocol: DIO mice were pretreated with ACY775 (10 mg/kg/day, i.p.) or vehicle for 3 days, which was followed by a last injection of ACY775 (or vehicle) in the morning of fourth day. 6 hours later mice were injected with saline or leptin (1 mg/kg, i.p.) and hypothalamus were extracted after 45 minutes following the leptin injection. Representative immunoblots for STAT3^Tyr705 phosphorylation and total STAT3 from the hypothalamus. Quantification of the ratio of p-STAT3^Tyr705 to total-STAT3 signal in the immunoblots. The results were reproduced in three independent experiments. The results were analyzed hourly.
DIO mice were pretreated with ACY775 (10 mg/kg/day, i.p.) or vehicle for 3 days, which was followed by a last injection of ACY775 (or vehicle) in the morning of fourth day. 6 hours later mice were injected with saline or leptin (1 mg/kg, i.p.) and the hypothalamus were extracted after 45 minutes following the leptin injection.
6 hours later mice were injected with saline or leptin (1 mg/kg, i.p.) and hypothalamus were extracted after 45 minutes following the leptin injection. Immunoblots for STAT3^Tyr705 phosphorylation and total STAT3 from the hypothalamus were made to quantify the ratio of p-STAT3^Tyr705 to total-STAT3 signal in the immunoblots. The results were reproduced in two independent experiments.
DIO mice were pretreated with ricolinostat (50 mg/kg/day, i.p.) or vehicle 3 days, which was followed by a last injection of ricolinostat (or vehicle) in the morning of fourth day. 6 hours later mice were injected with saline or leptin (1 mg/kg, i.p.) and the hypothalamus were extracted after 45 minutes following the leptin injection. Immunoblots were performed for STAT3^Tyr705 phosphorylation and total STAT3 from the hypothalamus. The ratio of p-STAT3^Tyr705 to total STAT3 signal in the immunoblots was quantified.

[3] = test system: HDAC6; test: Ac-tubulin immunoblotting in HEK293 cells; format: cell-based
[4] = test system: DIO mice; test: Glucose homeostasis in chronically treated DIO mice (GTT, ITT, insulin, HOMA-IR, liver H&E); format: in vivo; settings: for blood glucose levels / glucose tolerance (GTT): after 1 week; for circulating/serum insulin levels / hepatic steatosis (liver H&E) / insulin resistance (HOMA-IR): after 3 weeks
Protocol: DIO mice were treated with ACY775 (10 mg/kg/day, i.p.) for 3 weeks. Daily body weight (g) of DIO mice treated with vehicle (n=17) or ACY775 (n=17) during 3 weeks of treatment was determined. Daily food intake (g) during 3 weeks of vehicle or ACY775 treatment was assessed. 24 hours' food intake per mouse during the first week of vehicle or ACY775 treatment was determined. Serum leptin (ng/ml) levels after 3 weeks of vehicle (n=24) or ACY775 (n=24) treatment was assessed. Lean mass (g), fat mass (g) and fat percentage (%) after 3 weeks of vehicle (n=17) or ACY775 (n=17) treatment measured by Dual-energy X-ray absorptiometry (DEXA) scan. DEXA scans were performed in two different cohorts. Glucose tolerance test (GTT) after 1 week of vehicle (n=33) or ACY775 (n=26) treated DIO mice was assessed. Area of curve (AOC) analysis for GTT was performed. Blood glucose (mg/dl) levels after 1 week of vehicle (n=17) or ACY775 (n=16) were assessed in treated DIO mice. Insulin tolerance test (ITT) was performed after 2 weeks of vehicle (n=31) or ACY775 (n=21) treatment of DIO mice. Serum insulin (ng/ml) levels were measured after 3 weeks of vehicle (n=22) or ACY775 (n=21) in treated DIO mice. A homeostatic model assessment of insulin resistance (HOMA-IR) was analyzed after 3 weeks of vehicle (n=14) or ACY775 (n=13) treated DIO mice. […]
Blood glucose (mg/dl) levels were measured after 1 week of vehicle (n=16) or ricolinostat (n=16) treated DIO mice. GTT after 1 week of vehicle (n=17) or ricolinostat (n=16) treatment of DIO mice was assessed. AOC analysis for GTT was performed. ITT after 2 weeks of vehicle (n=17) or ricolinostat (n=16) treated DIG mice was measured. Serum insulin (ng/ml) levels after 3 weeks of vehicle (n=8) or ricolinostat (n=8) treatment were measured in DIO mice. Liver sections from 3 weeks of vehicle or ricolinostat treated DIG mice were stained by H&E.

| Compound | leptin-stimulated hypothalamic p-STAT3^Tyr705 in inhibitor-pretreated mice [2] | tubulin acetylation (HDAC6 inhibitor activity) in cells [3] | insulin tolerance test (ITT) / insulin sensitivity [4] | blood glucose levels [4] | glucose tolerance (GTT) [4] | circulating/serum insulin levels [4] | hepatic steatosis (liver H&E) [4] | average food intake during the first week vs control ([1]; DIO mice) | daily food intake before treatment ([1]; DIO mice) [g] | body weight after treatment ([1]; DIO mice) [g] | decrease in body weight ([1]; DIO mice) | fat mass (DEXA) ([1]; DIO mice) | fat percentage (DEXA) ([1]; DIO mice) | lean mass (DEXA) ([1]; DIO mice) | circulating/serum leptin levels ([1]; DIO mice) | body weight before treatment ([1]; DIO mice) [g] | daily food intake under treatment ([1]; DIO mice) [g] | food intake and total body fat mass [1] | insulin resistance (HOMA-IR) [4] | further results |
| --- | --- | --- | --- | --- | --- | --- | --- | --- | --- | --- | --- | --- | --- | --- | --- | --- | --- | --- | --- | --- |
| O=C(CCCCCCNC(=O)c1cnc(N(c2ccccc2)c2ccccc2)nc1)NO [Ricolinostat] | did not significantly increase STAT3^Tyr705 phosphorylation | confirmation of Ricolinstat's HDAC6 inhibitory activity | did not improves glucose tolerance (FIG. 8M) or insulin sensitivity | did not reduce blood glucose levels | did not improves glucose tolerance | did not reduce insulin levels | no decrease in the hepatic steatosis |  |  |  |  |  |  |  |  |  |  |  |  | body weight effect of chronic treatment ([1]; DIO mice, 3 weeks i.p., bavarostat 10, citarinostat 25, ricolinostat 50 mg/kg): minimal decrease in bodyweight for the first couple of days without creating any meaningful or significant decreases; also recorded: does not reduce body weight; food intake during chronic treatment ([1]; DIO mice, 3 weeks i.p., bavarostat 10, ricolinostat 50 mg/kg): reduced transitionally during the first 2-3 days of treatment but then rebounded |
| O=C(NO)c1cnc(NC2(c3cccc(F)c3)CCCCC2)nc1 [ACY775, 2-[[1-(3-fluorophenyl)cyclohexyl]amino]-N-hydroxy-5-pyrimidinecarboxamide] | increased significantly | increases tubulin acetylation | significant difference between ACY775-treated mice and those treated with vehicles | significantly reduced | significantly improved glucose tolerance | significantly reduced the circulating insulin levels | almost completely abolished hepatic steatosis | highly significant reduction | 2.54 ± 0.10 | 33.53 ± 1.19 | 29.58%±1.79% | significantly lower | significantly lower | did not alter the lean mass | significantly downregulated | 48.25 ± 0.87 | 0.85 ± 0.06 | significant reduction of food intake and total body fat mass | significantly reduced the insulin resistance |  |
| O=C(NO)c1cnc(NC2(c3ccccc3)CC2)nc1 [ACY738] | substantially increased | inhibits the HDAC6 activity | improved insulin tolerance | significantly reduced | significant improvement of glucose homeostasis | reduced insulin levels | improved hepatic steatosis | severely reduced | 2.35 ± 0.10 | 37.74 ± 1 | 20.21%±1.32% | significantly decreased | significantly decreased | no change in the lean body mass | significantly decreased | 46.43 ± 0.74 | 1.32 ± 0.05 | significant reduction of food intake and total body fat mass | ameliorated insulin resistance |  |

From patent US20240252496A1, “SELECTIVE HYPOTHALAMUS PERMEABLE HDAC6 INHIBITORS FORTREATMENT OF LEPTIN-RESISTANT OBESITY” (The Children’s Medical Center Corporation, priority 2022, published 2024)
